In patent EP0358494B1, “Emulsifiable concentrate of a pesticide” (priority 1988, dated 1990):
Read-outs that look alike come from different tables or passages of the source.

Test: Solubility of water in the cosolvent (Table 1)
Type: physicochemical
Method: All of the compositions were prepared by simple mechanical agitation of the ingredients together, using a Silveron (Trade Mark) high shear mixer. The nature and water solubility of the various cosolvents employed are as noted in Table 1.

[1] = the cosolvent itself (neat solvent)

| Compound | Solubility of water in solvent (H20/Solv) | Solubility of water in solvent (H20/Solv) [1] [% w/w] |
| --- | --- | --- |
| COC(C)COC(C)CO (centres unmarked) [Dipropylene glycol monomethyl ether] | miscible | – |
| CCOP(=S)(OCC)Oc1nc(Cl)c(Cl)cc1Cl [chlorpyrifos] | .0002% w/w | – |
| CCSCc1ccccc1OC(=O)NC [ethiofencarb] | – | 0.18 |
| COP(=S)(OC)Oc1ccc([N+](=O)[O-])c(C)c1 [fenitrothion] | – | 0.0014 |
| xylene | 0.87% w/w | – |
